# From patent publication US10287328B2, “Treatment of diabetes, toll-like receptor 4 modulators and methods for using the same” (KeMyth Biotech Co., Ltd., priority 2016, dated 2019)
# Tests used:
# HUVECs = assay type: cell-based, human
# Procedure: Cell viability was detected by a methanethiosulfonate (MTS) assay. In brief, 2×10^4 HUVECs were seeded to a 48-well plates in 100 μl endothelial cell medium (ECM, ScienCell Research Laboratory, Cat. 1001, USA) per well and incubated for 24 hrs. The media was removed and the cells were then incubated with media having 2% fetal bovine serum (FBS), in the absence or presence of various peptides, such as PLY, PLY123, PLY4, C70PLY4 or N35PLY4, at a concentration of 1, 10 or 100 nM. After incubation for 18 hours, the media was removed and 20 μl MTS reagents (20%) were added to each well in the final volume of 100 μl and placed in incubator for 1 hours. The optical density was measured at 490 nm using a plate reader.
# [1] = Body weight in C57BL/KsJ-db/db diabetic mice; assay type: in vivo; conditions: 2 mg/kg/3 days i.p. for 30 days, compared with control group, after week 2
# Procedure: Male C57BL/KsJ-db/db mice (diabetic deficiency knockout mice) at 5 weeks of age (23 g) were fed a pelletized commercial chow diet for acclimation from the arrival for 2 weeks. […]. They were given free access to food and distilled water, and the food consumption and body weight gain were measured daily and weekly, respectively. […]; and (2) group 2 served as diabetic mice administered C70PLY4 (2 mg/kg/3 days) in aqueous suspension i.p. for 30 days (C70PLY4). […] The blood was centrifuged at 1000 g for 15 min at 4° C., and plasma and erythrocyte were separated. The livers and adipose tissues were removed, washed, weighted, and frozen at −70° C. until analyzed.
# HUVEC = test: Low shear stress experiment on HUVEC (morphology, F-actin immunofluorescence); assay type: cell-based, human; conditions: peptide pre-treatment 1 hour (100 mM), shear stress 4 dyn/cm^2 for 6 hours
# Procedure: HUVEC was purchased by ScienCell Research Laboratories (CA, USA). The pellet was resuspended in M199 culture medium supplemented with penicillin/streptomycin and 20% fetal bovine serum (FBS), after which the cells were plated onto cell culture dishes. ECs were grown in Petri dishes for three days and then seeded onto glass slides pre-coated with rat tail type I collagen. Secondary cultures were used for the experiments within two days after reaching confluence (˜1-2×10^5 cells/cm^2).^12
# HUVECs was mounted on a slide in a parallel-plate flow chamber, which was connected to a perfusion loop system (15). The system was kept in a constant-temperature, maintained at pH 7.4 by gassing with 5% CO2. The osmolality of the medium was kept in the range 285-295 mOsm/kg during perfusion. The flow channel width (w) was 1 cm and the channel height (h) was 0.025 cm. […]
# After exposing to shear stress with or without peptide treatment, HUVECs were washed, fixed with 4% formaldehyde, and permeabilized by 1% Triton X-100 in PBS at 37° C. for 30 min. […] Intracytoplasmic F-actin immunofluorescence was detected by staining with phalloidin-fluorescein isothiocyanate (FITC) (1:1000 eBioscience) for 1 hr at room temperature, and cell nuclear stained with 4′,6-diamidino-2-phenylindole (DAPI) for 10 min at room temperature. Fluorescent cells were photographed by a fluorescence microscope with CCD (OLYMPUS).
# [2] = system: neointima formation of aorta; test: Neointima formation of aorta (HE stain) in STZ-treated HFD-fed rats; assay type: in vivo
# Procedure: The ascending part of aorta were taken from mice, including control health mice and HFD induced diabetic mice, with and without treatment of C70PLY4, and kept in 10% formalin buffered for 24 h. The specimens were routinely embedded in paraffin blocks and cut in transversal sections (3 μm). The slides were stained with hematoxylin and eosin. The specimens were analyzed with light microscope.
# The present study determined if C70PLY4 attenuates the status of atherosclerosis in HFD-fed rats.
sequence,measurement,setting,value
QDLTAHFTTSIPLKGNVRNLSVKIRECTGLAWEWWRTVYEKTDLPLVRKRTISIWGTTLYPQVEDKVEND [C70PLY4],toxicity to HUVECs (FIG. 15),"HUVECs; MTS assay, 1, 10 or 100 nM, statement for high concentration (100 nM)",no toxic effects
same,toxic effects to HUVECs at 100 nM or below,"HUVECs; MTS assays, 100 nM or below, data not shown",no toxic effects
same,body weight,[1],significantly decreases
same,low shear stress induced cytoskeleton (F-actin) remodeling,HUVEC,almost block
same,low shear stress induced morphological change,HUVEC,almost block
same,neointima formation of aorta induced by STZ,[2],significantly attenuated the status of neointima formation
